These results are taken from publication PMC8307317, “Point-Substitution of Phenylalanine Residues of 26RFa Neuropeptide: A Structure-Activity Relationship Study” (Molecules, 2021).

Read-outs that look alike come from different tables or passages of the source. Non-standard residues stand in square brackets, D forms with d. Residues, ends and D or L forms follow the SMILES beside them. No end group written: not given here. *: point of attachment. Phe(4-tBu) = CC(C)(C)c1ccc(C[C@H](N)C(=O)O)cc1; X7 = O=C(C(c1ccc(C(F)(F)F)cc1)N1CCNCC1)*; X4 = COc1ccc(C(C(=O)*)N2CCNCC2)cc1OC; X5 = COc1ccc(C(C(=O)*)N2CCNCC2)cc1; X8 = O=C(C(c1ccccc1F)N1CCNCC1)*; X1 = O=C(C(c1cccnc1)N1CCNCC1)*

The target in experiment [1] is T1, human QRFPR (hQRFPR) (Homo sapiens, UniProt Q96P65).
T1 construct: expressed in transfected cells; host or cells: CHO cells, stably transfected with hQRFPR (G418 selection) and Gα16 (hygromycin B selection)
T1 sequence (Q96P65 1-431): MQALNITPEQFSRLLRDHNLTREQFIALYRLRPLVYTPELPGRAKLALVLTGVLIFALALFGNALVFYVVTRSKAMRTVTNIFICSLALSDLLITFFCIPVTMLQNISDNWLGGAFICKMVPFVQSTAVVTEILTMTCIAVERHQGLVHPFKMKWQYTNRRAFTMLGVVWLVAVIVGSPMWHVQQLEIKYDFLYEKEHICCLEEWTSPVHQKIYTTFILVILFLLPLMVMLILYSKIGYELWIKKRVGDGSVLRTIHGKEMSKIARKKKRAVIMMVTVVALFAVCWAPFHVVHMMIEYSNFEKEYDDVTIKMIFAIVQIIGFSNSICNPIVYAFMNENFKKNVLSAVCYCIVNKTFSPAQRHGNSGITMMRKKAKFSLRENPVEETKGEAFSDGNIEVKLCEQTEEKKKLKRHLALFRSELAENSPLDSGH
Briefly: Calcium mobilization assay, antagonist mode (26RFa-evoked [Ca2+]i increase in Gα16-hQRFPR-transfected CHO cells). The format is cell-based. The conditions noted are these: for inhibition at 10 µM: CHO, read-out: Imax (inhibition of 26RFa-evoked response); for inhibition at 10 µM / Imax (inhibition of 26RFa-evoked response): Inhibition at a maximal concentration of 10^−5 M, 10^−7 M 26RFa. The procedure:
(§1) Stably transfected hQRFPR CHO cells were obtained as previously described. The cells were maintained in F-12 nutrient mixture (Ham-F12) medium supplemented with 10% fetal bovine serum, 2 mM glutamine, and penicillin-streptomycin. Expression of Gα16 cells was maintained using selection antibiotic hygromycin B (200 µg/mL) and that of hQRFPR using geneticin G418 (500 µg/mL) (Life Technologies, Villebon-Sur-Yvette, France) in a humidified 5% CO2 atmosphere at 37 °C.
(§2) Changes in intracellular Ca^2+ concentrations induced by 26RFa(20–26) analogs in CHO-Gα16-hQRFPR-transfected cells were measured on a benchtop scanning fluorometer Flexstation III (Molecular Devices, Sunnyvale, CA, USA) as previously described. Briefly, 96-well assay black plates with clear bottoms (Corning international, Avon, France) were seeded at a density of 40,000 cells/well 24 h prior to assay. For profiling agonistic experiments, cells were loaded with 2 µM Fluo-4 acetoxymethyl ester (AM) (Invitrogen) for 1 h in the presence of 0.01% pluronic acid, washed thrice, and incubated for 30 min with standard HBSS containing 2.5 mM probenecid and 5 mM HEPES. Compounds to be tested were added at final concentrations ranging from 10^−11 to 10^−5 M in HBSS, and the fluorescence intensity was measured during 3 min. To evaluate the antagonistic potency of the test compounds, cells were incubated with each compound over 15 min after Fluo-4 AM loading. Then, during fluorescence recording, a pulse of 26RFa was administered at a final concentration of 10^−7 M. After subtraction of the mean fluorescence background, the baseline was normalized to 100%. Fluorescence peak values were determined for each concentration of compound.
(§3) Calcium experiments were performed in triplicate, and data, expressed as mean ± SEM of at least three distinct experiments, were analyzed with the Prism 8.0 software (Graphpad Software, San Diego, CA, USA). EC50 and the IC50 values were determined from concentration–response curves using a sigmoidal dose–response fit with variable slope from at least three independent determinations. Differences between 26RFa(20–26) and analog activities were analyzed by the Mann–Whitney test. p values < 0.05 were considered significant.

The target in experiment [2] is T1, human QRFPR (hQRFPR). Briefly: Calcium mobilization assay, agonist mode ([Ca2+]i in Gα16-hQRFPR-transfected CHO cells). The class given is cell-based. The procedure:
as §1, §2, §3
A general note: A change in cytosolic calcium serves as a functional read-out for many receptors and channels.

For experiment [3], the target named is T1, human QRFPR (hQRFPR). Further details: method as in PMID 22800498. As to conditions: cited from earlier work.
Where [4] appears, read: single prototype curve, triplicate, 10^−7 M 26RFa-evoked response, read-out: IC50 calculated from representative dose–inhibition curves (Figure 4).
[5] abbreviates: [Ca2+]i mobilization in Gα16-hQRFPR-transfected CHO cells, mean of at least three independent experiments performed in triplicate, read-out: EC50.

As a reminder, the inhibition is the drop in the measured response relative to a control, in per cent. A word on the IC50: it is the concentration that gives 50% inhibition. A word on the EC50: it is the concentration that produces a half-maximal response. Regarding `CC(C)(C)c1ccc(C[C@H](NC(=O)CNC(=O)CN)C(=O)N[C@@H](CO)C(=O)N[C@@H](Cc2ccccc2)C(=O)N[C@@H](CCCNC(=N)N)C(=O)N[C@@H](Cc2ccccc2)C(N)=O)cc1` [Compound 11, [ptBuPhe^22]26RFa(20–26)] (H-GG[Phe(4-tBu)]SFRF-NH2), on human QRFPR (hQRFPR) [1], the inhibition at 10 µM was 45 to 46% and the “Imax (inhibition of 26RFa-evoked response)” value turned out to be 45%. For the same molecule, the IC50 at human QRFPR (hQRFPR) [1] (inhibition of 10^−7 M 26RFa-evoked [Ca2+]i response, compounds inactive as agonists, ND = not detectable, read-out: IC50) amounted to 6.22 µM. The IC50 on human QRFPR (hQRFPR) [1] (setting [4]) is 4.49 µM. Moreover, the EC50 at human QRFPR (hQRFPR) [2] (setting [5]) was > 10 µM. For `N=C(N)NCCC[C@H](NC(=O)[C@H](Cc1ccccc1)NC(=O)[C@H](CO)NC(=O)[C@H](Cc1ccccc1)NC(=O)CNC(=O)CN)C(=O)N[C@H](Cc1c[nH]c2ccccc12)C(N)=O` [Compound 39, [DTrp^26]26RFa(20–26)] (H-GGFSFR[dW]-NH2), at human QRFPR (hQRFPR) [1], the inhibition at 10 µM fell in the range of 45 to 46% and the “Imax (inhibition of 26RFa-evoked response)” value was 46%. In addition, at human QRFPR (hQRFPR) [1] (setting [4]), the IC50 is 5.84 µM. In the case of `N=C(N)NCCC[C@H](NC(=O)[C@H](Cc1ccccc1)NC(=O)[C@H](CO)NC(=O)C(c1ccccc1F)N1CCNCC1)C(=O)N[C@@H](Cc1ccccc1)C(N)=O` (some centres unmarked) [Compound 55, [Cmpi(2-FPhg)^22]26RFa(22–26)] (X8-SFRF-NH2; N-terminus assumed), at human QRFPR (hQRFPR) [2] (setting [5]), the EC50 was determined as 2.48 µM. The same measure, in the same setting: the figure for `N=C(N)NCCC[C@H](NC(=O)[C@H](Cc1ccccc1)NC(=O)[C@H](CO)NC(=O)C(c1ccccc1F)N1CCNCC1)C(=O)N[C@@H](Cc1ccccc1)C(N)=O` (some centres unmarked) [Compound 56, [Cmpi(2-FPhg)^22]26RFa(22–26)] (X8-SFRF-NH2) is > 10 µM; for `N=C(N)NCCC[C@H](NC(=O)[C@H](Cc1ccccc1)NC(=O)[C@H](CO)NC(=O)C(c1ccc(C(F)(F)F)cc1)N1CCNCC1)C(=O)N[C@@H](Cc1ccccc1)C(N)=O` (some centres unmarked) [Compound 57, [Cmpi(4-TfmPhg)^22]26RFa(22–26)] (X7-SFRF-NH2) it is > 10 µM; for `N=C(N)NCCC[C@H](NC(=O)[C@H](Cc1ccccc1)NC(=O)[C@H](CO)NC(=O)C(c1ccc(C(F)(F)F)cc1)N1CCNCC1)C(=O)N[C@@H](Cc1ccccc1)C(N)=O` (some centres unmarked) [Compound 58, [Cmpi(4-TfmPhg)^22]26RFa(22–26)] (X7-SFRF-NH2) it is > 10 µM.

`COc1ccc(C(C(=O)N[C@@H](CO)C(=O)N[C@@H](Cc2ccccc2)C(=O)N[C@@H](CCCNC(=N)N)C(=O)N[C@@H](Cc2ccccc2)C(N)=O)N2CCNCC2)cc1` (some centres unmarked) [Compound 59, [Cmpi(4-MeOPhg)^22]26RFa(22–26)] (X5-SFRF-NH2): the EC50 at human QRFPR (hQRFPR) [2] (setting [5]) is > 10 µM. Still for that read-out and setting: the figure for `COc1ccc(C(C(=O)N[C@@H](CO)C(=O)N[C@@H](Cc2ccccc2)C(=O)N[C@@H](CCCNC(=N)N)C(=O)N[C@@H](Cc2ccccc2)C(N)=O)N2CCNCC2)cc1` (some centres unmarked) [Compound 60, [Cmpi(4-MeOPhg)^22]26RFa(22–26)] (X5-SFRF-NH2) is > 10 µM; for `COc1ccc(C(C(=O)N[C@@H](CO)C(=O)N[C@@H](Cc2ccccc2)C(=O)N[C@@H](CCCNC(=N)N)C(=O)N[C@@H](Cc2ccccc2)C(N)=O)N2CCNCC2)cc1OC` (some centres unmarked) [Compound 61, [Cmpi(3,4-diMeOPhg)^22]26RFa(22–26)] (X4-SFRF-NH2) it is > 10 µM. For `COc1ccc(C(C(=O)N[C@@H](CO)C(=O)N[C@@H](Cc2ccccc2)C(=O)N[C@@H](CCCNC(=N)N)C(=O)N[C@@H](Cc2ccccc2)C(N)=O)N2CCNCC2)cc1OC` (some centres unmarked) [Compound 62, [Cmpi(3,4-diMeOPhg)^22]26RFa(22–26)] (X4-SFRF-NH2), the EC50 on human QRFPR (hQRFPR) [2] (setting [5]) was > 10 µM. Same read-out and setting: under `N=C(N)NCCC[C@H](NC(=O)[C@H](Cc1ccccc1)NC(=O)[C@H](CO)NC(=O)C(c1cccnc1)N1CCNCC1)C(=O)N[C@@H](Cc1ccccc1)C(N)=O` (some centres unmarked) [Compound 63, [Cmpi(3-Pyg)^22]26RFa(22–26)] (X1-SFRF-NH2) stands 4.99 µM. On to `N=C(N)NCCC[C@H](NC(=O)[C@H](Cc1ccccc1)NC(=O)[C@H](CO)NC(=O)C(c1cccnc1)N1CCNCC1)C(=O)N[C@@H](Cc1ccccc1)C(N)=O` (some centres unmarked) [Compound 64, [Cmpi(3-Pyg)^22]26RFa(22–26)] (X1-SFRF-NH2), for which the EC50 at human QRFPR (hQRFPR) [2] (setting [5]) is > 10 µM. On to GGFSFRF-NH2 [Compound 1, 26RFa(20–26)], for which, at human QRFPR (hQRFPR) [2] (single prototype curve, triplicate, basal [Ca2+]i mobilization, read-out: EC50 calculated from representative dose–response curves (Figure 3)), the concentration for a half-maximal effect (EC50) is 1.07 µM. As for “GGFSFRW-NH2 [Compound 10, [Trp^26]26RFa(20–26)]”, the EC50 on human QRFPR (hQRFPR) [2] (setting [5]) was found to be 5.06 µM. Same read-out and setting: the figure for “GGFSWRF-NH2 [Compound 9, [Trp^24]26RFa(20–26)]” is 2.04 µM; for “GGWSFRF-NH2 [Compound 8, [Trp^22]26RFa(20–26)]” it is 1.98 µM. Take [Cmpi^21]26RFa(21–26) [LV-2043]: the “fold more potent than the reference heptapeptide 26RFa(20–26)” value on human QRFPR (hQRFPR) [3] is recorded as 5 fold.
